According to patent US20240254087A1, “SELECTIVE, PARTIAL, AND ARRESTIN-BIASED 5-HT2A AGONISTS WITH UTILITY IN VARIOUS DISORDERS” (Saint Joseph's University, priority 2021, published 2024):
Entries after “also recorded” stand apart in the source; their conditions may differ. Like-named read-outs stand apart in the source and are kept apart here.

Tests used:
[1] = biological target: 5-HT2B (Homo sapiens, UniProt P41595); test: BRET Gq dissociation, 5-HT2B; format: cell-based; design: expressed in transfected cells; host or cells: HEK293T, transient; settings: for Emax: read-out: 5-HT2B Gq Dissociation (BRET) EMAX ± SEM (%5-HT)
Chain of 5-HT2B (P41595 whole entry): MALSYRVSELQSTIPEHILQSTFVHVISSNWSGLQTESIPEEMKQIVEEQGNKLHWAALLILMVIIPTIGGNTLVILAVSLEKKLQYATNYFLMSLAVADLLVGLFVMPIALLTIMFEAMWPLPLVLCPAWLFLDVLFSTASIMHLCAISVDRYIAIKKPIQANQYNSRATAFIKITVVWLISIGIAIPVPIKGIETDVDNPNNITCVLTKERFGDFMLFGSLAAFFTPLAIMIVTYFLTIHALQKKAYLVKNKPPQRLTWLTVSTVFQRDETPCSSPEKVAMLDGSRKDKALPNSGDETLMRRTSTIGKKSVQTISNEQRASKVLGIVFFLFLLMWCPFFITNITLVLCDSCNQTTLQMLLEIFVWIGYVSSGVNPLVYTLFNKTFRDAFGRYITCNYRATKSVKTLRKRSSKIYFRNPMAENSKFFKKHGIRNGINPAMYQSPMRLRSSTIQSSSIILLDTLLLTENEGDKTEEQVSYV
Experimental: (§1) After at least 18-24 hours, transfected cells were plated in poly-lysine coated 96-well white clear bottom cell culture plates in DMEM containing 1% dialyzed FBS at a density of 25-40,000 cells in 200 μL per well and incubated overnight. After approximately 20-24 hours, media was decanted and cells were washed with 60 μL of drug buffer (1×HBSS, 20 mM HEPES, pH 7.4), followed by 60 μL of drug buffer and pre-incubated in a humidified atmosphere at 37° C. before receiving drug stimulation. Drug stimulation was induced by adding 30 μL of a solution of drug (3X) diluted in McCorvy buffer (1×HBSS, 20 mM HEPES, pH 7.4, supplemented with 0.3% BSA fatty acid free, 0.03% ascorbic acid) and plates were incubated at the indicated time and temperature. Fifteen minutes before reading, 10 μL of the RLuc substrate, either coelenterazine h for β-Arrestin recruitment BRET^1 or coelenterazine 400a for Gq dissociation BRET^2 (Prolume/Nanolight, 5 μM final concentration) was addedper well. Plates were read for luminescence at 485 nm and fluorescent eYFP emission at 530 nm for BRET^1 and at 400 nm and fluorescent GFP2 emission at 510 nm for BRET2 at 1 second per well using a Mithras LB940 (Berthold). The BRET ratios of fluorescence/luminescence were calculated per well and were plotted as a function of drug concentration using Graphpad Prism 8 (Graphpad Software Inc., San Diego, CA).

[2] = biological target: T1, 5-HT2A (Homo sapiens, UniProt P28223); test: cell-based; design: expressed in transfected cells; host or cells: HEK293T, transient; settings: for EC50: read-out: 5-HT2A β-arrestin recruitment pEC50 (converted); for Emax: read-out: 5-HT2A β-arrestin Emax (% 5-HT), BRET, mean ± SEM
T1 sequence (P28223 whole entry): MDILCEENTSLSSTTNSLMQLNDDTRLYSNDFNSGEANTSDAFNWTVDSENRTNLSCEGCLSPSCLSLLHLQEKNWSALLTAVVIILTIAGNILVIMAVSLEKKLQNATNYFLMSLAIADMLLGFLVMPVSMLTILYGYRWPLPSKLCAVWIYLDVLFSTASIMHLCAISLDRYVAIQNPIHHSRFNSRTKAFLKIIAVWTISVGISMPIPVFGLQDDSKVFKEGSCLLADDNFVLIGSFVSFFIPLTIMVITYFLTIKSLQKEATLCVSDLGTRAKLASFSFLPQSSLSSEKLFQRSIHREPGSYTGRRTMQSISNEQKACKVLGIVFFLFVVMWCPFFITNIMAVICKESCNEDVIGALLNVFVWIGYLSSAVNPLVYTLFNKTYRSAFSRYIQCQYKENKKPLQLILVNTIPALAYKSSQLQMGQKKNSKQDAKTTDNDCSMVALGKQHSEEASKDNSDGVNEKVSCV
Experimental: as §1, with “Plates were read for luminescence at 485 nm and fluorescent eYFP emission at 530 nm for BRET^1 and at 400 nm and fluorescent GFP2 emission at 510 nm for BRET2 at 1 second per well using a Mithras LB940 (Berthold).” left out

[3] = test system: male C57BL/6J mice; test: Head-twitch response (HTR) in mice; format: in vivo, mouse; settings: for ED50: Mus musculus
Experimental: Male C57BL/6J mice (6-8 weeks old) from Jackson Labs (Bar Harbor, ME, USA) were used for the behavioral experiments. The mice were housed on a reversed light-dark cycle (lights on at 1900 h, off at 0700 h) in an AAAC-approved vivarium at the University of California San Diego. Mice were housed up to four per cage in a climate-controlled room and with food and water provided ad libitum except during behavioral testing. Testing was performed between 1000 and 1800 h (during the dark phase of the light-dark cycle). The studies were conducted in accordance with National Institutes Health (NIH) guidelines and were approved by the University of California San Diego Institutional Animal Care and Use Committee.
The mice were allowed to recover from the magnet implantation surgeries for at least 1 week prior to behavioral testing. HTR experiments were conducted in a well-lit room, and the mice were allowed to habituate to the room for at least 1 h prior to testing. Head twitches was assessed in a 12-cm diameter glass cylinder surrounded by a magnetometer coil. Coil voltage was low-pass filtered (2 kHz), amplified, and digitized (20-kHz sampling rate) using a Powerlab/8SP with LabChart v 7.3.2 (ADInstruments, Colorado Springs, CO, USA). […] HTR counts were analyzed using one-way ANOVAs. Dunnett's test was used for post hoc comparisons.

[4] = biological target: T2, 5-HT2C (Homo sapiens, UniProt P28335); test: BRET Gq dissociation, 5-HT2C; format: cell-based; design: expressed in transfected cells; host or cells: HEK293T, transient; settings: for Emax: read-out: 5-HT2C Gq Dissociation (BRET) EMAX ± SEM (%5-HT)
T2 sequence (P28335 33-458): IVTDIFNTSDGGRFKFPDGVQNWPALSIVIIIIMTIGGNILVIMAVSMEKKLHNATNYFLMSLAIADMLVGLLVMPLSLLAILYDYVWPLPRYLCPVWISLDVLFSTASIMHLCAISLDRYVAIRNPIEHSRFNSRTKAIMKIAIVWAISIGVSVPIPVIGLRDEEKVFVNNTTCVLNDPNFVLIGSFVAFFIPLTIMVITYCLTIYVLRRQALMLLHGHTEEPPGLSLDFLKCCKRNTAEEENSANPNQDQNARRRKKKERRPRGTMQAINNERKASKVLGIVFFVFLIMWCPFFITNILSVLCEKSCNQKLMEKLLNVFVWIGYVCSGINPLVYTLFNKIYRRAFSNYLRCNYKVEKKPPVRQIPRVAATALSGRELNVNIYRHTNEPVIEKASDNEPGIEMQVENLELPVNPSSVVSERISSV
Experimental: as §1, with “Plates were read for luminescence at 485 nm and fluorescent eYFP emission at 530 nm for BRET^1 and at 400 nm and fluorescent GFP2 emission at 510 nm for BRET2 at 1 second per well using a Mithras LB940 (Berthold).” left out

[5] = biological target: T1, 5-HT2A; test: cell-based; design: expressed in transfected cells; host or cells: HEK293T, transient; settings: for Emax: read-out: 5-HT2A Gq Emax (% 5-HT), BRET, mean ± SEM
Experimental: as §1, with “Plates were read for luminescence at 485 nm and fluorescent eYFP emission at 530 nm for BRET^1 and at 400 nm and fluorescent GFP2 emission at 510 nm for BRET2 at 1 second per well using a Mithras LB940 (Berthold).” left out

[6] = read-out: 5-HT2B Gq Dissociation (BRET) pEC50 ± SEM (converted)
[7] = read-out: HTR ED50 μmol/kg (95% CI), SC, except DOI and 25D-NBOMe IP
[8] = read-out: HTR ED50 mg/kg (95% CI), SC, except DOI and 25D-NBOMe IP
[9] = read-out: 5-HT2C Gq Dissociation (BRET) pEC50 ± SEM (converted)
[10] = BRET, mean ± SEM, read-out: 5-HT2A Gq dissociation pEC50 (converted)
[11] = SC, except DOI and 25D-NBOMe IP

## COc1cc(CCNCc2ccccc2OC)c(OC)cc1I [Compound 25I-NBOMe, reference compound]
[1]
  Emax: 78.6 ± 2.6%
[1]; [6]
  EC50: 3.39 nM
[2]; BRET, mean ± SEM
  EC50: 0.525 nM
[2]
  Emax: 137 ± 3.7%
[3]
  Max HTR response during a 30-min assessment (maximum counts ÷ baseline response): 16.0-fold increase
[3]; [7]
  ED50: 0.17 µmol/kg
[3]; [8]
  ED50: 0.078 mg/kg
[4]
  Emax: 124 ± 3.1%
[4]; [9]
  EC50: 0.0977 nM
[5]; BRET, mean ± SEM
  5-HT2A Gq Emax (% 5-HT): 99.8 ± 1.2 % 5-HT
[5]; [10]
  EC50: 0.355 nM

## COc1cc(CCN)c(OC)cc1I [Compound 2C-I, reference compound]
[1]
  5-HT2B Gq Dissociation (BRET) EMAX ± SEM (%5-HT): 101.0 ± 2.1 %5-HT
  5-HT2B Gq Dissociation (BRET) pEC50 ± SEM: 7.72 ± 0.07
[2]; BRET, mean ± SEM
  5-HT2A β-arrestin Emax (% 5-HT): 74.3 ± 1.6 % 5-HT
  5-HT2A β-arrestin recruitment pEC50: 8.25 ± 0.07
[3]
  Max HTR response during a 30-min assessment (maximum counts ÷ baseline response): 13.8-fold increase
[3]; [11]
  HTR ED50 μmol/kg (95% CI): 2.42 (1.46-4.02) μmol/kg
  HTR ED50 mg/kg (95% CI): 0.83 (0.50-1.38) mg/kg
[4]
  5-HT2C Gq Dissociation (BRET) EMAX ± SEM (%5-HT): 106.9 ± 1.5 %5-HT
  5-HT2C Gq Dissociation (BRET) pEC50 ± SEM: 9.34 ± 0.05
[5]; BRET, mean ± SEM
  5-HT2A Gq Emax (% 5-HT): 93.4 ± 1.4 % 5-HT
  5-HT2A Gq dissociation pEC50: 8.83 ± 0.05

## COc1cc2c(cc1CCNCc1cccc3ccccc13)OCO2 [(39), [2-(6-methoxy-2H-1,3-benzodioxol-5-yl)ethyl][(naphthalen-1-yl)methyl]amine]
[1]
  5-HT2B Gq Dissociation (BRET) EMAX ± SEM (%5-HT): No activity
  5-HT2B Gq Dissociation (BRET) pEC50 ± SEM: No activity
[2]; BRET, mean ± SEM
  EC50: 5.89 nM
[2]
  Emax: 80.1 ± 2.5%
[3]
  Induction of the HTR in mice (in words): failed to induce a HTR
  Max HTR response during a 30-min assessment (maximum counts ÷ baseline response): 1.4-fold increase
[3]; [8]
  ED50: > 30 mg/kg
[4]
  Emax: 90.5 ± 2.3%
[4]; [9]
  EC50: 17 nM
[5]; [10]
  EC50: 15.5 nM
[5]
  Emax: 26.4 ± 2%

## COc1cc(OC)c(OC)cc1CCNCc1ccccc1OCc1ccccc1 [(61)]
[1]
  5-HT2B Gq Dissociation (BRET) EMAX ± SEM (%5-HT): No activity
  5-HT2B Gq Dissociation (BRET) pEC50 ± SEM: No activity
[2]; BRET, mean ± SEM
  EC50: 3.31 nM
[2]
  Emax: 72.9 ± 4.2%
[3]
  Induction of the HTR in mice (in words): lacked a HTR; also recorded: do not induce the HTR
  Max HTR response during a 30-min assessment (maximum counts ÷ baseline response): 1.4-fold increase
[3]; [8]
  ED50: > 30 mg/kg
[4]
  5-HT2C Gq Dissociation (BRET) EMAX ± SEM (%5-HT): No Activity
  5-HT2C Gq Dissociation (BRET) pEC50 ± SEM: No Activity
[5]; BRET, mean ± SEM
  5-HT2A Gq dissociation pEC50: No activity
[5]
  Emax: < 10%

## COc1cc(OC)c(OC)cc1CCNCc1ccccc1-c1ccc(O)cc1 [(64)]
[1]
  Emax: 29.2 ± 10.6%
[1]; [6]
  EC50: 3020 nM
[2]; BRET, mean ± SEM
  EC50: 11.7 nM
[2]
  Emax: 80.5 ± 5.5%
[3]
  Max HTR response during a 30-min assessment (maximum counts ÷ baseline response): 2.1-fold increase
[3]; [8]
  ED50: > 30 mg/kg
[4]
  Emax: 80.6 ± 9.8%
[4]; [9]
  EC50: 1700 nM
[5]
  EC50: 617 nM
  Emax: 43.6 ± 2.5%

## COc1cc(OC)c(OC)cc1CCNCc1ccccc1-c1cccs1 [(59), N-(2-(thiophen-2-yl)benzyl)-2-(2,4,5-trimethoxyphenyl)-ethan-1-amine]
[1]
  5-HT2B Gq Dissociation (BRET) EMAX ± SEM (%5-HT): No activity
  5-HT2B Gq Dissociation (BRET) pEC50 ± SEM: No Activity
[2]; BRET, mean ± SEM
  EC50: 8.51 nM
[2]
  Emax: 100 ± 3.5%
[3]
  Induction of the HTR in mice (in words): lacked a HTR
  Max HTR response during a 30-min assessment (maximum counts ÷ baseline response): 1.6-fold increase
[3]; [8]
  ED50: > 30 mg/kg
[4]
  5-HT2C Gq Dissociation (BRET) EMAX ± SEM (%5-HT): No Activity
  5-HT2C Gq Dissociation (BRET) pEC50 ± SEM: No Activity
[5]; [10]
  EC50: 24 nM
[5]
  Emax: 34.9 ± 1.6%

## COc1cc(OC)c(OC)cc1CCNCc1cccc2ccccc12 [(38)]
[1]
  5-HT2B Gq Dissociation (BRET) EMAX ± SEM (%5-HT): No activity
  5-HT2B Gq Dissociation (BRET) pEC50 ± SEM: No activity
[2]; BRET, mean ± SEM
  EC50: 1.62 nM
[2]
  Emax: 74.9 ± 1.9%
[3]
  Induction of the HTR in mice (in words): failed to induce a HTR
  Max HTR response during a 30-min assessment (maximum counts ÷ baseline response): 1.0-fold increase
[3]; [8]
  ED50: > 30 mg/kg
[4]
  Emax: 64.4 ± 2%
[4]; [9]
  EC50: 12.6 nM
[5]; [10]
  EC50: 5.5 nM
[5]
  Emax: 24.3 ± 1.2%

## COc1cc(OC)c(OC)cc1CCNCc1cccc(I)c1 [(53), N-(3-iodobenzyl)-2-(2,4,5-trimethoxyphenyl)-ethan-1-amine]
[1]
  EC50: 0.724 nM
  Emax: 20.3 ± 2.8%
[2]
  Emax: 82.7 ± 5.4%
[3]
  Induction of the HTR in mice (in words): failed to induce the HTR
  Max HTR response during a 30-min assessment (maximum counts ÷ baseline response): 1.1-fold increase
[3]; [8]
  ED50: > 30 mg/kg
[4]
  EC50: 15.1 nM
  Emax: 91.5 ± 3.2%
[5]
  Emax: 50.1 ± 1.9%

## COc1cc(CCNCc2ccccc2OC)c(OC)cc1C [25D-NBOMe (26)]
[2]
  Emax: 126 ± 3.4%
[3]
  Max HTR response during a 30-min assessment (maximum counts ÷ baseline response): 15.6-fold increase
[3]; [7]
  ED50: 0.64 µmol/kg
[3]; [8]
  ED50: 0.23 mg/kg
[5]; BRET, mean ± SEM
  5-HT2A Gq Emax (% 5-HT): 93.0 ± 1.3 % 5-HT
[5]
  Emax: ≥ 76%
